The values below are quoted from earlier work in patent US20230170070A1, “SYSTEM AND METHOD FOR PROVIDING FERTILITY ENHANCING DIETARY RECOMMENDATIONS IN INDIVIDUALS WITH SPERM CONDITIONS” (SOCIETE DES PRODUITS NESTLE S.A., priority 2020, published 2023).

Like-named read-outs stand apart in the source and are kept apart here.

In one data set the test system is sperm cells. To be noted: excessive alcohol.
In a further data set the test system is oxidative stress status. To be noted: exogenous supplementation; both in vitro and in vivo.
Data set [1] relates to semen quality. To be noted: for semen quality: In RCTs.
For data set [2] the following is noted: for pregnancy rate in the female partner: In RCTs.
The subject of data set [3] is semen quality. The following applies: from cold water fish.
[4] abbreviates: among men with astheno- or oligoasthenozoospermia.

For `CCO` [Alcohol], in the data set on sperm cells, the hormones in men entry was “decreases hormones in”; the sperm cells result is “men and degenerates”.

In the case of `O=C(O)CCCCC1CCSS1` (stereo not drawn) [Alpha-lipoic acid (ALA), Alpha-lipoic acid], the oxidative stress status entry in the data set on oxidative stress status is recorded as “improve oxidative stress”.

Take `COc1cc(/C=C/C(=O)CC(=O)/C=C/c2ccc(O)c(OC)c2)ccc1O` [Curcumin]: the semena quality parameters result in the data set on semen quality [1] (among oligoasthenoteratozoospermic men) was “Curcumin improved”.

`N[C@@H](CCC(=O)N[C@@H](CS)C(=O)NCC(=O)O)C(=O)O` [Glutathione]: in the data set on semen quality [1] (glutathione supplementation), the sperm concentration entry is given as “Improves sperm”, the sperm morphology entry is “Improves sperm” and the sperm motility entry is reported as “Improves sperm”.

Regarding `CC(=O)O[C@H](CC(=O)[O-])C[N+](C)(C)C` [L-acetyl carnitine (LAC), L-acetyl carnitine], in the data set with semen quality [1] (setting [4]), the sperm concentration entry was “can significantly improve” and the total sperm counts result was “can significantly improve”.

In the case of `C[N+](C)(C)C[C@H](O)CC(=O)[O-]` [L-carnitine], in the data set with semen quality [1] (setting [4]), the sperm concentration result is “can significantly improve” and the total sperm counts result is reported as “can significantly improve”.

Turning to `CC(C)=CCC/C(C)=C/C=C/C(C)=C/C=C/C(C)=C/C=C/C=C(C)/C=C/C=C(C)/C=C/C=C(\C)CCC=C(C)C` [Lycopene], in the data set on semen quality [1] (in vivo), the sperm parameters entry is “Improve sperm”.

As for `O[C@H]1[C@H](O)[C@@H](O)[C@H](O)[C@@H](O)[C@H]1O` [Myoinositol], in the data set with semen quality [1] (myoinositol supplementation), the progressive motility result is “increase in sperm”, the sperm concentration entry is “increase in sperm” and the sperm count result is reported as “increase in sperm”.

`[Se]` [Selenium]: the total sperm motility entry in the data set with semen quality [1] (compared with placebo) is given as “increase in total sperm”.

As for `O=C1O[C@H]([C@@H](O)CO)C(O)=C1O` [Vitamin C], the progressive sperm motility result in the data set on semen quality [1] (in vivo) is given as “increase in progressive”.

For the compound `C=C1CC[C@H](O)C/C1=C/C=C1\CCC[C@]2(C)[C@@H]([C@H](C)CCCC(C)C)CC[C@@H]12` [Vitamin D], the live birth rate entry in data set [2] (among oligozoospermic men, high-dose supplementation compared to placebo) is on record as “uptake. A higher live”.

Take `[Zn]` [Zinc]: in the data set with semen quality [1], the semen quality result is “shown to increase”. Besides, in data set [2], the “pregnancy rate in the female partner” value is “shown to increase”.

As to Vitamin E, the semen quality result in the data set on semen quality [1] is “been shown to increase”. The “pregnancy rate in the female partner” value in data set [2] is on record as “been shown to increase”.

For the compound isoflavones, the “non-genomic effects on sperm capacitation and acrosome reaction” value in the data set with sperm is given as “genomic negative”.

As for omega-3 fatty acids, in the data set on semen quality [3], the “influence on sperm morphology” value is given as “positive influence”.
